Results published in patent US4648996A, “Phenyl substituted-2,4,6,8-nonatetraenoic acid” (Hoffmann-La Roche Inc., priority 1985, dated 1987).

Tests used:
[1] = tested on: type II collagen arthritis in rats; assay: Established type II collagen arthritis; type: in vivo, Male and female Alderley Park Strain 1 rats; details: for Paw Vol / wt / GAG (urine glycosaminoglycans): 100 mg.kg^-1 p.o.
Description: Male and female Alderley Park Strain 1 rats.
Type 2 collagen (prepared from bovine nasal septum cartilage), Freunds incomplete adjuvant (Difco).
Rats were sensitized to type 2 collagen by injecting them intradermally with 1 ml. of a water in oil emulsion consisting of equal parts of a 1 mg.ml^-1 solution of type 2 collagen in 0.45M NaCl, 0.02M Tris, pH 7.4 and Freunds incomplete adjuvant. Rats developing arthritis were allocated on day 15 post sensitization to a control arachis oil treated group (6 male, 4 female) or to the Compound A treated group (6 male, 5 female). Hind paw volume measurements were taken to ensure even distribution of rats between groups. An overnight collection of urine was made on days 15/16 and dosing commenced on day 16. These urine samples were analyzed for glycosaminoglycans (GAG). Compound A was dosed at 100 mg.kg^-1 p.o. On days 19/20 a second overnight collection of urine was made. These urine samples were analyzed for glycosaminoglycans (GAG). On day 20 a second hind paw measurement was taken. Rats were then anaesthetised with sodium pentobarbitone, bled, killed and X-rays taken of hind and forepaws. Rats were dosed on days 16-19 inclusive (4 doses).

[2] = tested on: impregnated sponge granuloma in the rat; assay: Impregnated sponge granuloma test in the rat; type: in vivo, AHH/R female rats (PVG derived)
Description: AHH/R female rats (PVG derived) with an initial weight range of 120-140 g. were used.
Sponge preparation. Pellets (6.5 mm diameter) were punched from cellulose sponge cloth ("Wettex") and 0.1 ml. of a suspension containing 0.5 mg.ml^-1 of heat killed M. tuberculosis (human strains C, DT and PN) in sterile saline was applied to each pellet. The pellets were dried, weighed and autoclaved.
Rats were randomly divided into groups of five and daily dosing with test compounds was commenced. After the fifth dose the rats were anaesthetised with Sagatal (45 mg.kg^-1 i.p.) the backs were shaved and two pellets were implanted subcutaneously (one each side) into each rat through a small dorsal midline incision. The incision was closed and the rats allowed to recover from the anaesthetic.
Seven days after implantation the rats were killed and the pellets were removed, dissected free of extraneous tissue and weighed. Each pellet was then placed in a 4 ml aliquot of distilled water, chopped with fine scissors and sonicated. After centrifugation the Na^+ and K^+ content of the supernatant was determined by flame photometry. In addition the adrenal and thumus glands from each rat were dissected out and weighed and the lower hind limbs were removed for measurement of tibial bone breaking strain. Body weights were also recorded throughout the test period.
The mean ± SE for each of the parameters was calculated and differences from the control values were determined by Student's t test (2-tailed). Percentage reductions of granuloma weight, Na^+ and K^+ content and percentage changes of adrenal and thymus, weight and tibial breaking strain were determined.

[3] = tested on: carrageenan pleurisy in rats; assay: Non-immune inflammation, 4 hr carrageenan pleurisy; type: in vivo, Female Alderley Park Strain 1 rats; details: 10 days
Description: Female Alderley Park Strain 1 rats weighing 170-205 g. at the start of the experiment were used.
Lambda-carrageenan. Prepared as a solution in saline and sterilized by autoclaving.
Compound A was administered orally to groups of 8 rats once daily for 10 days at doses of 10, 30 and 100 mg.kg^-1. Control animals received the vehicle. One hour after the last dose the animals were anesthetised with methohexitone (Brietal, 50 mg.kg^-1) and 0.2 ml of 1% lambda carrageenan was injected into the pleural cavity. Four hours later the animals were killed with an overdose of pentobarbitone (Sagatal), the pleural exudate was collected and the pleural cavity was washed out with 2 ml of phosphate-buffered saline (PBS-A, Oxoid). The exudate volume was recorded and cell counts were determined using an automatic cell counter (Coulter). Differential cell counts were performed on exudate smears stained with Giemsa stain in order to determine separately the numbers of polymorphonuclear leucocytes (PMN) and mononuclear cells (MN).
Immediately after recovery of the pleural exudates the tibiae of the animals were excised and their breaking strains were determined.
The body weights of the animals were recorded daily. Statistical analyses were performed using Student's two-tailed t test.

CCCCCCCCCOc1ccccc1/C=C/C(C)=C/C=C/C(C)=C/C(=O)O [Compound A, All(E)-9-[2(nonyloxy)phenyl]-3,7-dimethyl-2,4,6,8-nonatetraenoic acid]
Paw Vol ([1]; day 16 (start of dosing)): 2.44 ± 0.08 | wt ([1]; day 16 (start of dosing)): 247 ± 14 g | GAG (urine glycosaminoglycans) ([1]; day 16 (urine days 15/16)): 1586 ± 307 µg | GAG (urine glycosaminoglycans) ([1]; day 20 (urine days 19/20)): 634 ± 72 µg | Paw Vol ([1]; day 20, after 4 doses): 2.66 ± 0.06 | wt ([1]; day 20, after 4 doses): 229 ± 10 g | weight during treatment (in words) ([1]; male and female rats, 100 mg.kg^-1): lost weight | % reduction of granuloma K+ ([2]; 15 mg.kg^-1 p.o.): -6.9% | % reduction of granuloma Na+ ([2]; 15 mg.kg^-1 p.o.): 14.5% | % reduction of granuloma Wet weight ([2]; 15 mg.kg^-1 p.o.): 15.1% | % reduction of granuloma K+ ([2]; 45 mg.kg^-1 p.o.): 0.8% | % reduction of granuloma Na+ ([2]; 45 mg.kg^-1 p.o.): 11% | % reduction of granuloma Wet weight ([2]; 45 mg.kg^-1 p.o.): 10.8% | Exudate Volume ([3]; 10 mg per kg per day p.o.): 0.94 mL | Exudate Volume % change ([3]; 10 mg per kg per day p.o.): -32.8% | Tibial Breaking Strain (Right + Left) % change ([3]; 10 mg per kg per day p.o.): -3.4% | Tibial Breaking Strain (Right + Left) Mean ([3]; 10 mg per kg per day p.o.): 6.5 kg | Total Cell Count ([3]; 10 mg per kg per day p.o.): 120.8 ×10^6 | Total Cell Count % change ([3]; 10 mg per kg per day p.o.): -6.5% | Total MN ([3]; 10 mg per kg per day p.o.): 8.4 ×10^6 | Total MN % change ([3]; 10 mg per kg per day p.o.): -17.4% | Total PMN ([3]; 10 mg per kg per day p.o.): 112.4 ×10^6 | Total PMN % change ([3]; 10 mg per kg per day p.o.): -5.6% | Exudate Volume ([3]; 30 mg per kg per day p.o.): 0.88 mL | Exudate Volume % change ([3]; 30 mg per kg per day p.o.): -36.9% | Tibial Breaking Strain (Right + Left) % change ([3]; 30 mg per kg per day p.o.): +1.5% | Tibial Breaking Strain (Right + Left) Mean ([3]; 30 mg per kg per day p.o.): 6.8 kg | Total Cell Count ([3]; 30 mg per kg per day p.o.): 112.1 ×10^6 | Total Cell Count % change ([3]; 30 mg per kg per day p.o.): -13.3% | Total MN ([3]; 30 mg per kg per day p.o.): 7.9 ×10^6 | Total MN % change ([3]; 30 mg per kg per day p.o.): -23.1% | Total PMN ([3]; 30 mg per kg per day p.o.): 104.2 ×10^6 | Total PMN % change ([3]; 30 mg per kg per day p.o.): -12.4% | Exudate Volume ([3]; 100 mg per kg per day p.o.): 0.80 mL | Exudate Volume % change ([3]; 100 mg per kg per day p.o.): -42.9% | Tibial Breaking Strain (Right + Left) % change ([3]; 100 mg per kg per day p.o.): -0.3% | Tibial Breaking Strain (Right + Left) Mean ([3]; 100 mg per kg per day p.o.): 6.7 kg | Total Cell Count ([3]; 100 mg per kg per day p.o.): 109.1 ×10^6 | Total Cell Count % change ([3]; 100 mg per kg per day p.o.): -15.7% | Total MN ([3]; 100 mg per kg per day p.o.): 7.5 ×10^6 | Total MN % change ([3]; 100 mg per kg per day p.o.): -26.7% | Total PMN ([3]; 100 mg per kg per day p.o.): 101.6 ×10^6 | Total PMN % change ([3]; 100 mg per kg per day p.o.): -14.7%
